Results as given in ChEMBL document CHEMBL1145618, “Discovery of trypanocidal thiosemicarbazone inhibitors of rhodesain and TbcatB” (Bioorg Med Chem Lett, 2008).

Tests used:
[1] = molecular target: Cathepsin B (Homo sapiens, UniProt P07858); assay: Inhibition of human cathepsin B
[2] = Therapeutic index, ratio of EC50 for human Raji cells to EC50 for Trypanosoma brucei; format: cell-based; settings: Raji cells (versus Trypanosoma brucei), read-out: Ratio EC50
[3] = Inhibition of Trypanosoma brucei cathepsin B
[4] = molecular target: Procathepsin L (Homo sapiens, UniProt P07711); assay: Inhibition of human cathepsin L
[5] = Inhibition of Trypanosoma brucei rhodesain
[6] = tested on: Trypanosoma brucei; assay: Antitrypanosomal activity against Trypanosoma brucei; format: functional, organism-based

Sequence of Procathepsin L (P07711 whole entry): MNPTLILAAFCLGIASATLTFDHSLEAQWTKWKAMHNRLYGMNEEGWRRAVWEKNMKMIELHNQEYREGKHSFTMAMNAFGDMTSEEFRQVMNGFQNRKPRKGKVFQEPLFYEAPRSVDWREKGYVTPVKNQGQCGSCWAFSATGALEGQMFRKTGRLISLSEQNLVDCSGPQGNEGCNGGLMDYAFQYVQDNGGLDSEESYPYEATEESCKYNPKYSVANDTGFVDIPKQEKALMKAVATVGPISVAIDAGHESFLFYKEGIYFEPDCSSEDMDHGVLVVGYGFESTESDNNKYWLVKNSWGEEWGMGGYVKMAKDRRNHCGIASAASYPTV

Row | IC50 [1] | IC50 [4] | EC50 [6] | SMILES | selectivity ratio [2] | IC50 [3] | IC50 [5]
1 | 6000 nM | 21 nM | 3700 nM | NC(=S)N/N=C(/CCc1ccccc1)c1cccc(Cl)c1 | > 6.7 | > 25000 nM | 42 nM
2 | 300 nM | 3.6 nM | 7000 nM | NC(=S)N/N=C(/c1cc(Cl)cc(Cl)c1)c1cccs1 | > 4 | 450 nM | 11 nM
3 | 300 nM | 10.1 nM | 7000 nM | NC(=S)N/N=C(/c1cc(C(F)(F)F)cc(C(F)(F)F)c1)c1cccs1 | > 4 | 150 nM | 7 nM
4 | 22000 nM | 118 nM | 6000 nM | NC(=S)N/N=C(/CCc1ccccc1)c1cccc(F)c1 | > 4 | > 25000 nM | 390 nM
5 | 4500 nM | 44 nM | > 10000 nM | Cc1ccc(/C(=N/NC(N)=S)c2cccc(F)c2)cc1 |  | > 25000 nM | 89 nM
6 | 1800 nM | 11 nM | 1100 nM | Cc1ccc(/C(=N\NC(N)=S)c2cc(Cl)cc(Cl)c2)cc1 | > 9 | 6000 nM | 46 nM
7 | 13000 nM | 1020 nM | > 10000 nM | Cc1ccc(/C(=N/NC(N)=S)c2ccccc2)cc1 |  | > 25000 nM | 500 nM
8 | 1700 nM | 81 nM | 2500 nM | NC(=S)N/N=C(/C=C/c1ccccc1)c1cccc(C(F)(F)F)c1 | > 10 | 7000 nM | 29 nM
9 | 4900 nM | 39 nM | 1300 nM | NC(=S)N/N=C(\CCc1ccccc1)c1cc(Cl)cc(Cl)c1 | > 19 | > 25000 nM | 57 nM
10 | 210 nM | 9.4 nM | 1500 nM | Cc1ccc(/C(=N/NC(N)=S)c2cccc(C(F)(F)F)c2)cc1 | > 17 | 210 nM | 8 nM
11 | 3000 nM | 17 nM | 2000 nM | NC(=S)N/N=C(\CCc1ccccc1)c1cc(C(F)(F)F)cc(C(F)(F)F)c1 | > 10 | > 25000 nM | 53 nM
12 | > 25000 nM | 910 nM | > 10000 nM | NC(=S)N/N=C(/CCc1ccccc1)c1ccccc1 |  | > 25000 nM | 1500 nM
13 | 3300 nM | 7.4 nM | 1300 nM | Cc1ccc(/C(=N\NC(N)=S)c2cc(C(F)(F)F)cc(C(F)(F)F)c2)cc1 [THIOSEMICARBAZONE STANDARD] | > 19 | 15000 nM | 44 nM
